From article PMC6270821, “ROS-Mediated Cytotoxic Effect of Copper(II) Hydrazone Complexes against Human Glioma Cells” (Molecules, 2014)

How the values were obtained:
[1] = system: EB-CT-DNA; test: Competitive binding with EB bound to CT-DNA (fluorescence); design: species or system calf; conditions: for apparent binding constant Kapp (EB-CT-DNA): KEB 1.0 × 10^7 M^−1, [EB] = 10 µM; for number of binding sites n (EB-CT-DNA): Scatchard equation; for Stern-Volmer quenching constant Ksv (EB-CT-DNA) / binding constant K (EB-CT-DNA, Scatchard) / hypochromism in the EB-CT-DNA emission band at 602 nm: Tris-HCl pH 7.20, 25 °C; for hypochromism in the EB-CT-DNA emission band at 602 nm: complex up to 100 µM
Procedure: Steady-state competitive binding experiments using complexes 1 and 2were undertaken to get further proof for the binding of the complexes to DNA. The technique is based on the decrease of EB fluorescence resulting from the competitive displacement of EB from a DNA groove by a compound that competes for the same site.
The quenching data were analyzed by the Stern-Volmer equation: F0/F = Ksv[Q] + 1 (2) where F0 is the emission intensity in the absence of quencher, F is the emission intensity in the presence of quencher, Ksv is the quenching constant, and [Q] is the quencher concentration. The Ksv value is obtained as a slope from the plot of F0/F vs. [Q] [34].
The apparent binding constants (Kapp) were calculated from Equation (3): KEB [EB] = Kapp [complex] (3) where KEB is 1.0 × 10^7 M^−1, [EB] = 10 µM, and [complex] is the complex concentration when the fluorescence intensity of EB is 50%. This value is obtained from the plot F0/F vs. [complex] when F0/F = 2.
The binding constants (K) were calculated by the Scatchard Equation (4) (see Figure 6): log[(F0 − F)/F] = logK + nlog[Q] (4) where F0 and F are the fluorescence intensities of EB in the absence and presence of compound; [Q] is the compound concentration; K is the binding constant of compound with EB and n is the number of binding sites. K is the antilog of the intercept and n is the slope obtained from the plot of log[(F0 − F)/F] vs. […].
The affinity of the complexes for DNA was evaluated by a fluorescence technique using ethidium bromide (EB) bound to CT-DNA (EB-CT-DNA) solution in Tris-HCl buffer (pH = 7.20). EB is a planar cationic dye which is widely used as a sensitive fluorescence probe for native DNA. EB emits intense fluorescent light in the presence of DNA due to its strong intercalation between the adjacent DNA base-pairs. The changes in the fluorescence intensity at 602 nm (excitation at 545 nm) of EB-CT-DNA were measured with respect to the concentration of the copper(II) complexes. In fact, when it is removed, EB is non-emissive in Tris-HCl buffer solution (pH = 7.20), due to fluorescence quenching of the free EB by solvent molecules.

[2] = target: T1, bovine serum albumin (BSA) (Bos taurus, UniProt P02769); test: Fluorescence quenching of BSA; assay type: binding; conditions: for quenching of BSA fluorescence emission intensity: 1.0 µM BSA, up to 10.0 µM compound, excitation 280 nm, pH 7.20, 25 °C; for number of binding sites n (BSA): Scatchard equation; for binding constant K (BSA, Scatchard): phosphate buffer pH 7.20, 25 °C; for Stern-Volmer quenching constant Ksv (BSA): λ = 345 nm, 25 °C
T1 construct: purchased Sigma-Aldrich Brasil
Procedure: Based on fluorescence data for λ = 345 nm at 25 °C, the Stern-Volmer quenching constant (Ksv) and the bimolecular quenching rate constant (kq) were obtained using the classical Stern-Volmer equation (Equation (3)). The value of kq was calculated by the Ksv/τ0 ratio, where τ0 is the average lifetime of the fluorophore in the absence of quencher (τ0 =10 ns for BSA).
The interaction of complexes 1 and 2 with bovine serum albumin (BSA) was studied in phosphate buffer (8.3 mM, pH = 7.20). Stock solution of BSA (0.5 mM) was prepared in phosphate buffer and stored in the dark in the refrigerator for further use. The stock solutions of complexes were freshly prepared by first dissolving the compounds in DMF and then making the dilutions with phosphate buffer (pH = 7.20). The amount of DMF was kept less than 5% (by volume) for each set of experiment and had no effect on any experimental results.
(§1) The binding of the copper(II) complexes to BSA was studied using fluorescence spectra. The emission spectra were recorded in the 295–600 nm range with excitation at 280 nm. The excitation and emission slit widths and scan rates were constantly maintained for all the experiments. BSA solution (1.0 µM) was titrated by successive additions of a stock solution of the complexes (50 mM) using a micropipette. All experiments were performed at 298 K. The synchronous fluorescence spectra of BSA varying the concentration of 1 and 2 were recorded at ∆λ (difference between excitation and emission wavelength) = 15 nm and ∆λ = 60 nm.
If it is assumed that the binding of compounds with BSA occurs at equilibrium, the equilibrium binding constant can be analyzed according to the Scatchard equation [28].

[3] = target: T1, bovine serum albumin (BSA); test: Synchronous fluorescence spectra of BSA; assay type: binding; conditions: 1.0 µM BSA, up to 10.0 µM compound; for decrease of BSA synchronous fluorescence intensity at Δλ = 60 nm: tryptophan residues; for decrease of BSA synchronous fluorescence intensity at Δλ = 15 nm: tyrosine residues
Procedure: Synchronous fluorescence spectroscopy is a very useful method to study the changes in the microenvironment of tyrosine and tryptophan amino acid residues in BSA [39]. The spectra were measured after and before the addition of test compounds. The synchronous fluorescence of BSA is characteristic of tyrosine residues when the difference between excitation and emission wavelength Δλ value is 15 nm and characteristic of tryptophan residues if Δλ value is 60 nm. […] In both cases, a decrease in emission intensity of BSA with increasing complex concentration was observed. […] In the spectra at Δλ = 60 nm, an important decrease of the BSA fluorescence intensity (~41% for 1 and ~44% for 2) accompanied by a small blue shift of 1nm occurs.
as §1

T1 sequence (P02769 25-607): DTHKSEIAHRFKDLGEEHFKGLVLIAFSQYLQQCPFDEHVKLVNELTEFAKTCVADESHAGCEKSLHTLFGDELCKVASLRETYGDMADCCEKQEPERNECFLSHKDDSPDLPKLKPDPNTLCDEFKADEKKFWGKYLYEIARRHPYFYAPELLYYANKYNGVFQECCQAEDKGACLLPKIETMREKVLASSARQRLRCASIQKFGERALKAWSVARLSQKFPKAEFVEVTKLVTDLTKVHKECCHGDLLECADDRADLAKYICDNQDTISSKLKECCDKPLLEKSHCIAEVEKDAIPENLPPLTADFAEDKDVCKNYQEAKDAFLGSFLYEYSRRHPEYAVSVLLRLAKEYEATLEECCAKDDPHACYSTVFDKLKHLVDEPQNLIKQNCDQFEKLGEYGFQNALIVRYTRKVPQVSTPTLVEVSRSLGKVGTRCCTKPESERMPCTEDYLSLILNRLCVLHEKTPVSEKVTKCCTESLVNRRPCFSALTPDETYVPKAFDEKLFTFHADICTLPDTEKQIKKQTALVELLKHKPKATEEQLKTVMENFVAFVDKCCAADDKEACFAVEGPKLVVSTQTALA

Row | SMILES | apparent binding constant Kapp (EB-CT-DNA) [1] [M⁻¹] | number of binding sites n (EB-CT-DNA) [1] | Stern-Volmer quenching constant Ksv (EB-CT-DNA) [1] | binding constant K (EB-CT-DNA, Scatchard) [1] | hypochromism in the EB-CT-DNA emission band at 602 nm [1] | quenching of BSA fluorescence emission intensity [2] | number of binding sites n (BSA) [2] | binding constant K (BSA, Scatchard) [2] | Stern-Volmer quenching constant Ksv (BSA) [2] | decrease of BSA synchronous fluorescence intensity at Δλ = 60 nm [3] | decrease of BSA synchronous fluorescence intensity at Δλ = 15 nm [3]
1 | CC(=O)NN=C(C)c1ccccn1.[Cl][Cu][Cl] [compound 1, [dichloro(2-acetylpyridineacetyl-hydrazone)copper(II)]] | 234000 | 1.04 ± 0.01 | (2.35 ± 0.03) × 10^3 M^−1 | (0.35 ± 0.01) × 10^4 M^−1 | up to 24% | ~ 35% | 1.06 ± 0.01 | (1.11 ± 0.04) × 10^5 M^−1 | (0.55 ± 0.01) × 10^5 M^−1 | ~ 41% | ~ 16%
2 | CC(=O)NN=C(c1ccccc1)c1ccccn1.[Cl][Cu][Cl] [compound 2, [dichloro(2-benzoylpyridineacetylhydrazone)copper(II)]] | 207000 | 0.81 ± 0.02 | (2.05 ± 0.03) × 10^3 M^−1 | (0.38 ± 0.01) × 10^3 M^−1 | ≤ 20% | ~ 40% | 1.06 ± 0.01 | (1.37 ± 0.05) × 10^5 M^−1 | (0.68 ± 0.01) × 10^5 M^−1 | ~ 44% | ~ 18%
